The values that follow come from patent publication US4177350A, “Imidazole ethyl oxyalkoxy derivatives and thio analogues thereof” (Siegfried Aktiengesellschaft, priority 1977, dated 1979).

The subject of series [1] is Staphylococcus aureus haemolyticus. The series is described as follows: minimum inhibitory concentration, gradient plate method, Staphylococcus aureus haemolyticus. The series is classed as cell-based. On the set-up: key to partial resistancy, Bacteria, St: partial resistancy observed. The settings on record: for MIC: 72 h, gradient 0-100 μg/ml, 10% aqueous dimethyl formamide, evaluated three days after inoculation, read-out: Minimum Inhibitory Concentration, Bacteria, St. The text has this: (§1) Test evaluation was made three days after inoculation.

A further series deals with Streptococcus faecalis. The series is described as follows: minimum inhibitory concentration, gradient plate method, Streptococcus faecalis. The settings on record: for MIC: Enterococcus faecalis, 72 h, gradient 0-100 μg/ml, 10% aqueous dimethyl formamide, evaluated three days after inoculation, read-out: Minimum Inhibitory Concentration, Bacteria, Str. On the set-up: key to partial resistancy, Bacteria, Str: partial resistancy observed. The series is classed as cell-based.
Excerpt: as §1

The test system of series [2] is Trichophyton mentagrophytes. The series is described as follows: minimum inhibitory concentration, gradient plate method, Trichophyton mentagrophytes. The series is classed as cell-based. The settings on record: 72 h, gradient 0-100 μg/ml, 10% aqueous dimethyl formamide, evaluated three days after inoculation, read-out: Minimum Inhibitory Concentration, Fungi, Tri.
Excerpt: as §1

In a further series the test system is Aspergillus niger. Put plainly: minimum inhibitory concentration, gradient plate method, Aspergillus niger. Type of series: cell-based. On the set-up: key to partial resistancy, Fungi, Asp: partial resistancy observed. The settings on record: for MIC: 72 h, gradient 0-100 μg/ml, 10% aqueous dimethyl formamide, evaluated three days after inoculation, read-out: Minimum Inhibitory Concentration, Fungi, Asp.
Excerpt: as §1

In a further series the test system is mice. The settings on record: oral, value as reported by Thienpont et al, Arzneimittelforschung 1975, 25, 224; cited from earlier work.
A short description of the next series: in vivo. The settings on record: mouse, po.
The nature of series [3]: oral toxicity LD50 per os, mice. The settings on record: mouse, in vivo.
Excerpt: (§2) The results of these tests are summarized in the following Table I together with the oral toxicity values (LD50 per os; mice, values in mg per kg of body weight) determined in the conventional manner.

Molecules are shown by their SMILES. Values after ≈ are worked out from the molar mass of the structure shown.

Excerpt for in vivo: as §2

As to `Clc1ccc(COC(Cn2ccnc2)c2ccc(Cl)cc2Cl)cc1` (stereo not shown) [ECONAZOLE, reference compound], the MIC (in series [1]; with Streptococcus faecalis; in series [2]; in the series with Aspergillus niger) was less than 10 µg/mL in each case. The “Toxicity LD50 per os” value in the series on mice was 462.7 mg/kg.
Regarding `Clc1ccc(SCOC(Cn2ccnc2)c2ccc(Cl)cc2Cl)nc1` (stereo not drawn) [Example 26, 1-β[(5'-chloropyridyl-2'-thiomethoxy)-2,4-dichlorophenethyl)]-imidazole nitrate], the MIC in series [1] was 10 µg/mL; in the series with Streptococcus faecalis it was 20 µg/mL; in series [2], less than 10 µg/mL; with Aspergillus niger, less than 10 µg/mL. Also, the median lethal dose (LD50) (as a rule, the dose at which mortality reaches 50%) in “in vivo” is roughly 2700 mg/kg.
`Clc1ccc(C(Cn2ccnc2)OCCOc2ccccc2)c(Cl)c1` (stereo not drawn) [Example 27, 1-β-(phenoxyethoxy-2,4-dichlorophenethyl)-imidazole nitrate]: in series [1], the “partial resistancy, Bacteria, St” value is given as “r”. For the same compound, the values for the MIC (in the series on Streptococcus faecalis; in series [2]; in the series with Aspergillus niger) were 30 µg/mL, less than 10 µg/mL and less than 10 µg/mL, respectively. Moreover, the 50% lethal dose (LD50) in the series “in vivo” was roughly 800 mg/kg.
As to `Clc1ccc(OCCOC(Cn2ccnc2)c2ccc(Cl)cc2Cl)cc1` (stereo not drawn) [Example 28, 1-[β-(p-chlorophenoxyethoxy)-2,4-dichlorophenethyl)]-imidazole nitrate], the MIC in series [1] is less than 10 µg/mL; with Streptococcus faecalis it was 10 µg/mL; in series [2] it was less than 10 µg/mL; in the series on Aspergillus niger it was less than 10 µg/mL. For the same compound, the LD50 in “in vivo” is greater than 3000 mg/kg.
`Clc1ccc(OCCCOC(Cn2ccnc2)c2ccc(Cl)cc2Cl)cc1` (stereo not drawn) [Example 30, 1-{β-[3-(p-chlorophenoxy)-propoxy-2,4-dichlorophenethyl]}-imidazole nitrate]: the MIC (in series [1]; with Streptococcus faecalis; in series [2]; with Aspergillus niger) was less than 10 µg/mL each time. The compound further gave a median lethal dose (LD50) in the series “in vivo” greater than 4000 mg/kg.
With `Clc1ccc(SCCCOC(Cn2ccnc2)c2ccc(Cl)cc2Cl)cc1.O=[N+]([O-])O` (stereo not drawn) [Example 31, 1-{β-[3-(p-chlorophenylthio)-propoxy]-2,4-dichlorophenethyl}-imidazole nitrate], the MIC (in series [1]; in the series with Streptococcus faecalis; in series [2]; in the series with Aspergillus niger) was less than 10 µg/mL each time. The LD50 in series [3] came to 4300 mg/kg.
For the compound `Clc1ccc(C(Cn2ccnc2)SCCCOc2ccccc2)c(Cl)c1` (stereo not drawn) [Example 32, 1-[β-(phenoxypropylthio)-2,4-dichlorophenethyl]-imidazole], the MIC (in series [1]; in series [2]; with Aspergillus niger) was less than 10 µg/mL in each case. In addition, the “partial resistancy, Bacteria, Str” value with Streptococcus faecalis is “r”. In addition, the LD50 in “in vivo” was greater than 2000 mg/kg.
With `Clc1ccc(OCCCSC(Cn2ccnc2)c2ccc(Cl)cc2Cl)cc1` (stereo not drawn) [Example 33, 1-{β-[3-(p-chlorophenoxy)-propylthio-2,4-dichlorophenethyl]}-imidazole], the MIC was less than 10 µg/mL in series [1], 10 µg/mL (≈ 22.6 µM) in the series with Streptococcus faecalis, less than 10 µg/mL in series [2] and 25 µg/mL (≈ 56.6 µM) in the series with Aspergillus niger. In “in vivo”, this compound yielded a median lethal dose (LD50) greater than 1000 mg/kg.
As for `Clc1ccc(SCCCSC(Cn2ccnc2)c2ccc(Cl)cc2Cl)cc1` (stereo not drawn) [Example 34, 1-{β-[3-(p-chlorophenylthiopropylthio)]-2,4-dichlorophenethyl}-imidazole nitrate], the values for the MIC in series [1] and in series [2] were 10 µg/mL and less than 10 µg/mL, respectively. For the same compound, the “partial resistancy, Bacteria, Str” value in the series with Streptococcus faecalis is on record as “r”. Besides, the “partial resistancy, Fungi, Asp” value in the series with Aspergillus niger is reported as “r”. Also, the LD50 in “in vivo” was greater than 3000 mg/kg.
Consider `Clc1ccc(OCCCCOC(Cn2ccnc2)c2ccc(Cl)cc2Cl)cc1.O=[N+]([O-])O` (stereo not drawn) [Example 35, 1-{β-[4-(p-chlorophenoxy)-butoxy]-2,4-dichlorophenethyl}-imidazole nitrate], for which the MIC is 10 µg/mL in series [1], less than 10 µg/mL in series [2] and less than 10 µg/mL in the series with Aspergillus niger. Besides, the “partial resistancy, Bacteria, Str” value in the series with Streptococcus faecalis is reported as “r”. This compound also came in with an LD50 in series [3] greater than 4000 mg/kg.
For the compound `Clc1ccc(SCCCCOC(Cn2ccnc2)c2ccc(Cl)cc2Cl)cc1` (stereo not drawn) [Example 36, 1-{β-[4-(p-chlorophenylthio)-butoxy]-2,4-dichlorophenethyl}-imidazolenitrate], the MIC was less than 10 µg/mL in series [1], less than 10 µg/mL in series [2] and 35 µg/mL (≈ 76.8 µM) in the series with Aspergillus niger. Also, the “partial resistancy, Bacteria, Str” value in the series on Streptococcus faecalis is reported as “r”. The same compound came in with an LD50 in the series “in vivo” greater than 3000 mg/kg.
